The values that follow come from patent US20240043448A1, “Small Molecule Inhibitors of KRAS G12C Mutant” (Merck Sharp & Dohme LLC, priority 2019, published 2024).

Assay [1] deals with phospho-ERK. Description: Cellular phospho-ERK assay. Type of assay: cell-based. The conditions noted are these: NCI-H358 cells, 2 hour incubation, ratio of p-Erk vs total Erk, read-out: IC50 (nM) pERK (Cell). An outline of the steps: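 NCI-H358 cells seeded overnight, then exposed to compound dose-response titrations for 2 hours at 37° C. in RPMI. Lysates assayed by AlphaLISA SureFire Ultra multiplex for p-Erk and total Erk; ratio p-Erk/total Erk used as readout, IC50 from 4-parameter logistic fit.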

For assay [2], the target named is Biotinylated KRAS G12C protein (Homo sapiens (Human), UniProt P01116, C118S/C51S/C80L/G12C). Kind of assay: SOS-catalyzed nucleotide exchange assay (TR-FRET). Type of assay: biochemical. As to conditions: in vitro apparent potency; preincubation time of 60 minutes prior to addition of SOS. In a few lines:
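Biotinylated KRAS G12C preloaded with Bodipy-GDP and Tb-streptavidin, then incubated with compound (10-point, 3-fold series) for 60 min at RT. Exchange started with SOS and GTP for 60 min. TR-FRET 520/495 ratio normalised to DMSO and saturating-inhibitor controls; four-parameter fit.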
(In general: Time-resolved FRET reads energy transfer from a long-lived donor to a nearby acceptor.)

Read-outs that look alike come from different tables or passages of the source.

Sequence of Biotinylated KRAS G12C protein (P01116 other isoform, or with tags, fused parts or gaps, stated change not applied): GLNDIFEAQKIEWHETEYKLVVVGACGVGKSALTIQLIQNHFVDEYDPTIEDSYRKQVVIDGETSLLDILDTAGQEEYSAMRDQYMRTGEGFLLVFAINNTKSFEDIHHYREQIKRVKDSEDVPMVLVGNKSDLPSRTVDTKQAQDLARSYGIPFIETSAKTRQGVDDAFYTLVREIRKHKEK

The IC50 is the concentration that inhibits the measured activity by half. As to `C=CC(=O)N1CCN(c2nc(=O)n3c4nc(c(F)cc24)-c2c(ccc(F)c2F)OCC(F)(F)CCc2ccnc(C(C)C)c2-3)C[C@H]1C` [Example 66, 12,12,17,18,21-pentafluoro-2-[(3R)-3-methyl-4-(prop-2-enoyl)piperazin-1-yl]-6-(propan-2-yl)-10,11,12,13-tetrahydro-4H-1,19-(ethanediylidene) pyrido[4,3-f]pyrimido[1,6-h] [1,8,10]benzoxadiazacyclo-tridecin-4-one], the IC50 in assay [1] (Homo sapiens, NCI-H358, 2 h) worked out at 30 nM; in assay [2], 5.3 nM.

Turning to `C=CC(=O)N1C[C@H](C)N(c2nc(=O)n3c4nc(c(F)cc24)-c2c(ccc(F)c2F)OCC2(CC2)Cc2ccnc(C(C)C)c2-3)C[C@H]1C` [Example 92, 2′-[(2S,5R)-2,5-dimethyl-4-(prop-2-enoyl)piperazin-1-yl]-16′,17′,20′-trifluoro-6′-(propan-2-yl)-4′H,10′H,12′H-spiro[cyclopropane-1,11′-[13]oxa[3,5,7,19]tetraaza[1,18]ethenopyrido [4,3-e]pyrimido[1,6-g][1,7,9]benzoxadiazacyclododecin]-4′-one], the IC50 in assay [1] (Homo sapiens, NCI-H358, 2 h) turned out to be 12 nM; in assay [2] it was 0.71 nM.

For `C=CC(=O)N1C[C@H](C)N(c2nc(=O)n3c4nc(c(F)cc24)-c2c(ccc(F)c2F)OCC(F)(F)CCc2ncnc(C(C)C)c2-3)C[C@H]1C` [Example 58, 2-[(2S,5R)-2,5-dimethyl-4-(prop-2-enoyl)piperazin-1-yl]-12,12,17,18,21-pentafluoro-6-(propan-2-yl)-10,11,12,13-tetrahydro-4H-1,19-(ethanediylidene)dipyrimido [4,5-f:1′,6′-h][1,8,10] benzoxadiazacyclo-tridecin-4-one], the IC50 in assay [1] (Homo sapiens, NCI-H358, 2 h) was determined as 14 nM; in assay [2] it was 0.74 nM.

As for `C=CC(=O)N1C[C@H](C)N(c2nc(=O)n3c4nc(c(F)cc24)-c2c(F)ccc(F)c2OCCOc2ccnc(C4CC4)c2-3)C[C@H]1C` [Example 111, 6-cyclopropyl-2-[(2S,5R)-2,5-dimethyl-4-(prop-2-enoyl)piperazin-1-yl]-14,17,20-trifluoro-11,12-dihydro-4H-1,18-ethenopyrido[4,3-e]pyrimido[1,6-g][1,4,7,9]benzodioxadiazacyclododecin-4-one], the IC50 in assay [1] was 154 nM; in assay [2], 17 nM.

As to `C=CC(=O)N1CC(C)N(c2nc(=O)n3c4nc(c(F)cc24)-c2c(F)cccc2COCCc2ccnc(C(C)C)c2-3)CC1C` [Example 115, 2-[(2S,5R)-2,5-dimethyl-4-(prop-2-enoyl)piperazin-1-yl]-17,20-difluoro-6-(propan-2-yl)-10,11-dihydro-1,18-ethenopyrido[3,4-e]pyrimido[6,1-c][9,2,4]benzoxadiazacyclododecin-4(13H)-one], the IC50 in assay [1] was 1020 nM; in assay [2], 237 nM.

Consider `C=CC(=O)N1C[C@H](C)N(c2nc(=O)n3c4nc(c(F)cc24)-c2c(F)cccc2OCCCc2ccnc(C(C)C)c2-3)C[C@H]1C` [Example 75, 2-[(2S,5R)-2,5-dimethyl-4-(prop-2-enoyl)piperazin-1-yl]-17,20-difluoro-6-(propan-2-yl)-11,12-dihydro-4H,10H-1,18-ethenopyrido[4,3-e]pyrimido[1,6-g][1,7,9]benzoxadiazacyclododecin-4-one], for which the IC50 was 8.8 nM in assay [1] (Homo sapiens, NCI-H358, 2 h) and 1.7 nM in assay [2].

As for `C=CC(=O)N1CCN(c2nc(=O)n3c4nc(c(Cl)cc24)-c2c(F)cccc2OCCc2ccccc2-3)[C@@H](C)C1` [Example 9, 19-chloro-16-fluoro-2-[(2S)-2-methyl-4-(prop-2-enoyl)piperazin-1-yl]-10,11-dihydro-4H-1,17-ethenodibenzo[b,h]pyrimido[6,1-f][1,5,7]oxadiazacycloundecin-4-one], the IC50 in assay [1] is 3830 nM; in assay [2] it was 1410 nM.

For the compound `C=CC(=O)N1CCN(c2nc(=O)n3c4nc(c(F)cc24)-c2c(F)cccc2OCCCCc2cnc(C(C)C)c-3c2)[C@@H](C)C1` (single isomer, unassigned) [Example 16a], the IC50 in assay [1] worked out at 79 nM; in assay [2], 9.8 nM.

Consider `C=CC(=O)N1CCN(c2nc(=O)n3c4nc(c(F)cc24)-c2c(F)cccc2CCOCCc2ccnc(C(C)C)c2-3)[C@@H](C)C1` [Example 17a, 18,21-difluoro-2-[(2S)-2-methyl-4-(prop-2-enoyl)piperazin-1-yl]-6-(propan-2-yl)-10,11,13,14-tetrahydro-4H-1,19-ethenopyrido[3,4-e]pyrimido[6,1-c][9,2,4]benzoxadiazacyclotridecin-4-one], for which the figures for the IC50 in assay [1] and in assay [2] were 66 nM and 11 nM, respectively.

With `C=CC(=O)N1CCN(c2nc(=O)n3c4nc(c(F)cc24)-c2c(F)ccc(F)c2OCCCCc2ccnc(C(C)C)c2-3)[C@@H](C)C1` [Example 79, 15,18,21-trifluoro-2-[(2S)-2-methyl-4-(prop-2-enoyl)piperazin-1-yl]-6-(propan-2-yl)-10,11,12,13-tetrahydro-4H-1,19-(ethanediylidene)pyrido[4,3-f]pyrimido[1,6-h][1,8,10]benzoxadiazacyclotridecin-4-one], the IC50 in assay [1] (Homo sapiens, NCI-H358, 2 h) amounted to 7 nM; in assay [2], 2.6 nM.

As to `C=CC(=O)N1C[C@H](C)N(c2nc(=O)n3c4nc(c(F)cc24)-c2c(Cl)cccc2OCCOc2ccnc(C(C)C)c2-3)C[C@H]1C` [Example 83, 17-chloro-2-[(2S,5R)-2,5-dimethyl-4-(prop-2-enoyl)piperazin-1-yl]-20-fluoro-6-(propan-2-yl)-11,12-dihydro-4H-1,18-(ethanediylidene)pyrido[4,3-e]pyrimido[1,6-g][1,4,7,9]benzodioxadiazacyclododecin-4-one], the IC50 in assay [1] (Homo sapiens, NCI-H358, 2 h) was found to be 8.9 nM; in assay [2], 11 nM.

Consider `C=CC(=O)N1CCN(c2nc(=O)n3c4nc(c(F)cc24)-c2cccc4cnn(c24)CCCOc2ccnc(C(C)C)c2-3)[C@@H](C)C1` [Example 3a, 22-fluoro-2-[(2S)-2-methyl-4-(prop-2-enoyl)piperazin-1-yl]-6-(propan-2-yl)-12,13-dihydro-4H,11H-1,20-ethenopyrido[4′,3′:2,3]pyrimido[1′,6′:4,5][1,4,6,10]oxatriazacyclotridecino[8,9,10-hi]indazol-4-one], for which the IC50 in assay [1] turned out to be 19100 nM; in assay [2], 4420 nM.

As for `C=CC(=O)N1C[C@H](C)N(c2nc(=O)n3c4nc(c(F)cc24)-c2c(F)ccc(F)c2OCCCc2ccnc(C(C)C)c2-3)C[C@H]1C` [Example 95, 2-[(2S,5R)-2,5-dimethyl-4-(prop-2-enoyl)piperazin-1-yl]-14,17,20-trifluoro-6-(propan-2-yl)-11,12-dihydro-4H,10H-1,18-(ethanediylidene)pyrido[4,3-e]pyrimido[1,6-g][1,7,9]benzoxadiazacyclododecin-4-one], the IC50 stood at 15 nM in assay [1] (Homo sapiens, NCI-H358, 2 h) and 2.5 nM in assay [2].

`C=CC(=O)N1C[C@H](C)N(c2nc(=O)n3c4nc(c(F)cc24)-c2c(F)cccc2OCC2(CCc4ccnc(C(C)C)c4-3)CC2)C[C@H]1C` [Example 60, 2′-[(2S,5R)-2,5-dimethyl-4-(prop-2-enoyl)piperazin-1-yl]-18′,21′-difluoro-6′-(propan-2-yl)-10′,11′-dihydro-4′H,13′H-spiro[cyclopropane-1,12′-[14]oxa[3,5,7,20]tetraaza[1,19] (ethanediylidene)pyrido[4,3-f]pyrimido[1,6-h][1,8,10]benzoxadiazacyclotri-decin]-4′-one]: the IC50 in assay [1] (Homo sapiens, NCI-H358, 2 h) came to 17 nM; in assay [2] it was 1.5 nM.

Take `C=CC(=O)N1C[C@H](C)N(c2nc(=O)n3c4nc(c(F)cc24)-c2cc(F)cc4cnn(c24)CCCCc2ccnc(C(C)C)c2-3)C[C@H]1C` [Example 108, 2-[(2S,5R)-2,5-dimethyl-4-(prop-2-enoyl)piperazin-1-yl]-18,22-difluoro-6-(propan-2-yl)-10,11,12,13-tetrahydro-4H-1,20-(ethanediylidene)pyrido [4′,3′:12,13]pyrimido[1′,6′:1,2][1,3,7] triazacyclotridecino[5,6,7-hi]indazol-4-one]: the IC50 in assay [1] (Homo sapiens, NCI-H358, 2 h) came out at 68 nM; in assay [2], 20 nM.

For the compound `C=CC(=O)N1C[C@H](C)N(c2nc(=O)n3c4nc(c(F)cc24)-c2c(ccc(F)c2F)OCCC(C)c2ccnc(C(C)C)c2-3)C[C@H]1C` (stereo partly drawn) [Example 90, 2-[(2S,5R)-2,5-dimethyl-4-(prop-2-enoyl)piperazin-1-yl]-16,17,20-trifluoro-10-methyl-6-(propan-2-yl)-11,12-dihydro-4H,10H-1,18-ethenopyrido[4,3-e]pyrimido[1,6-g][1,7,9]benzoxadiazacyclododecin-4-one], the IC50 is 6.8 nM in assay [1] (Homo sapiens, NCI-H358, 2 h) and 1.4 nM in assay [2].

Turning to `C=CC(=O)N1CCN(c2nc(=O)n3c4nc(c(F)cc24)-c2cccc4cnn(c24)CCCc2ccnc(C(C)C)c2-3)[C@@H](C)C1` (single isomer, unassigned) [Example 117], the figures for the IC50 in assay [1] and in assay [2] were 44 nM and 17 nM, respectively.

In the case of `C=CC(=O)N1C[C@H](C)N(c2nc(=O)n3c4cc(c(F)cc24)-c2c(F)ccc(F)c2OCCOc2ccnc(C(C)C)c2-3)C[C@H]1C` [Example 93, 2-[(2S,5R)-2,5-dimethyl-4-(prop-2-enoyl)piperazin-1-yl]-14,17,20-trifluoro-6-(propan-2-yl)-11,12-dihydro-4H-1,18-(ethanediylidene)pyrido[4,3-e]pyrimido[1,6-g][1,4,7]benzodioxazacyclododecin-4-one], the IC50 in assay [1] (Homo sapiens, NCI-H358, 2 h) is 572 nM; in assay [2], 31 nM.
